Consider two compounds from US20050026836A1, “Composition for the treatment of damaged tissue” (priority 1999, published 2005).

Assay [1] concerns the target T1, uPA (Homo sapiens, UniProt P00749). The assay can be described thus: biochemical. As to conditions: for Ki: UPA. The method, then: A pre-incubation of compound with enzyme is carried out for 15 minutes at 37° C., followed by substrate addition and further incubation for 30 minutes at the same temperature. The final assay volume is 200[…]1.
uPA (urokinase type plasminogen activator) inhibition was assayed by incubating human uPA at 33 IU/ml in 75 mM Tris, pH 8.1, 50 mM NaCl with 180 μM S2444 (substrate) and various concentrations of inhibitors. For the primary screen results, the incubation was performed at 37° C. for 30 minutes.
These assays were carried out in a 96-well plate. […] The incubation was performed after an initial pre-incubation at 37° C. for 15 mins and absorbance was read at 405 nm at 0 mins and at the end of the incubation on a […]ax microplate reader (Molecular Devices Corporation), using SOFTMaxPRO software.

Another assay deals with uPA and MMP-3. The assay can be described thus: Inhibition of uPA and MMP-3-mediated KGF-2 degradation (dual protease assay). The settings on record: uPA and MMP-3 together / KGF-2; inhibitors used (100 μM), alone or in combination. Type of assay: biochemical, human. As to the method: (§1) The extent of proteolysis of the growth factors was assayed by incubating TGF-β2, VEGF, PDGF-BB and KGF-2 with the proteases uPA, plasmin, MMP-3 and MMP-13 in assay buffer (either uPA/plasmin buffer, 50 mM tris-HCl, pH 7.4 or MMP assay buffer, 100 mM Tris, 10 mM NaCl, 10 mM CaCl2, 0.05% (w/v) Brij 35, pH 7.5). […] The growth factors were added to the incubation mixture at a final concentration of […], unless otherwise stated.
(§2) The effects of uPA were determined by incubation at a typical final concentration of 25 μg/ml (1500 U/ml) with each growth factor. The effects of plasmin were determined at a typical final concentration of 0.1 mg/ml by incubation with the individual growth factors in assay buffer. MMP-3 and -13 were incubated at a typical final concentration of 10 nM with the growth factors in assay buffer. Dual protease assays carried out with uPA and MMP-3 together were performed in 100 mM Tris, […], 10 mM CaCl2, 0.05% (w/v) Brij 35, pH 7.5. All incubations were performed in siliconised tubes (Sigma Aldrich, UK).
The inhibitors used in these experiments were compound 9454, compound 9470 and compound 5214. These were dissolved in DMSO at a concentration of 10 mM. Typical final concentrations for these inhibitors were in the range of 100 μM to 10 nM. Aprotinin was dissolved in the Tris buffer at 10 mg/ml and used at a typical concentration of 10 μg/ml. […]

Another assay concerns the target T2, human tPA (Homo sapiens, UniProt P00750).
T2 construct: Human tPA (one chain) 10 μg/vial (Chromogenix, 821157-039/0); purchased Chromogenix 821157-039/0
In words: tPA chromogenic inhibition assay (S2288). The format is biochemical. The settings on record: 100 μM compound. As to the method:
The method for analysis of tPA inhibition is similar to that for uPA inhibition. The assay utilises final concentrations of tPA of 0.4 µg/ml with 0.1 mg/ml tPA stimulator, 0.4 mM S2288 (substrate) and various concentrations of inhibitors, made up in uPA assay buffer. Pre-incubation is carried out with compound, enzyme and enzyme stimulator, as for uPA, prior to the incubation with substrate. Incubation time is 60 minutes at performed at 37° C. Data analysis is identical to that described above for uPA, using a known Km for tPA of 250 μM.
The incubation was performed at 37° C. for 60 mins. Percentage inhibition was calculated.

The target of another assay is T3, Plasmin (Homo sapiens, UniProt P00747).
T3 construct: Human plasmin, 2 mg/vial (Quadratech, 810665) was reconstituted to 1 mg/ml in buffer; purchased Quadratech 810665
The assay can be described thus: Plasmin chromogenic inhibition assay (Chromozym-PL). Type of assay: biochemical. As to conditions: 100 μM compound. The method, then:
Plasmin inhibition is assayed by incubating human plasmin at 0.7 μg/ml with 0.2 mM Chromozym-PL (substrate) and various concentrations of inhibitors in uPA assay buffer. Pre-incubation is carried out as for uPA and the incubation is performed at 37° C. for 30 mins.
The incubation was performed at 37° C. for 30 mins. Percentage inhibition was calculated.

Assay [2] concerns the target T1, uPA. In words: biochemical. As to conditions: read-out: Percentage inhibition of proteolysis. As to the method: as §1, §2
The inhibitors used in these experiments were compound 9454, compound 9470 and compound 5214. These were dissolved in DMSO at a concentration of 10 mM. Typical final concentrations for these inhibitors were in the range of 100 μM to 10 nM. Aprotinin was dissolved in the Tris buffer at 10 mg/ml and used at a typical concentration of 10 μg/ml.
All assays were carried out at 37° C. and enzymes were pre-incubated for 15 minutes with or without inhibitor as appropriate, prior to addition of growth factors. After the addition of growth factor, the incubation mixtures were divided into aliquots in siliconised tubes for each time point used. Incubations were carried out over a time course typically of 24 hours, unless otherwise stated. They were stopped by the addition of an equal volume of 2×Novex reducing loading buffer (final concentration 1.09 M glycerol, 141 mM Tris-base, 106 mM Tris-HCl, 73 mM lithium dodecyl sulphate (LDS), 0.5 mM ethylenediaminetetraacetic acid, 0.22 mM Serva Blue G250, 0.175 mM Phenol Red, pH 8.5) and samples prepared for electrophoresis by incubating at 70° C. for 10 minutes.
LDS-PAGE was performed using the NOVEX Xcell II Mini-Cell gel apparatus (Groningen, Holland) using a variation on the method of Laemmli (1970). Equal volumes of samples were loaded onto NuPage 4-12% Bis-tris gels with molecular weight markers (SeeBlue Plus2 Pre-stained Standards). Molecular weight determination was performed by comparison of bands with markers of molecular weight 3, 6, 14, 17, 28, 38, 49, 62, 98 and 188 kDa. […]

Assay [3] relates to circular full thickness lesions. In words: Normal wound healing in pigs, full thickness lesions. Type of assay: in vivo. The settings on record: 0.3% w/v formulation in CMC hydrogel, 1 ml topically daily, pig. As to the method:
The experiment was performed in 3 female SPF pigs (crossbreed of Danish country, Duroc and Yorkshire). At start of the acclimatisation period the body weight of the animals was about 30 kg. The lesions were established on day 1. The animals were anaesthetised with Stresnil® Vet. Janssen, Belgium (40 mg azaperone/ml, 1 ml/10 kg), and Atropin DAK, Denmark (1 mg atropine/ml, 0.05 ml/kg), given as a single intramuscular injection followed by i.v. injection of Hypnodil® Janssen, Belgium (50 mg metomidate/ml, 1-2 ml). Eight circular full thickness lesions (diameter 20 mm) were made on the prepared area, four on each side of the spine. The lesions were numbered 1 (most cranial) to 4 (most caudal) on the left side of the animal, and 5 (most cranial) to 8 (most caudal) on the right side of the animal. After surgery and daily thereafter, the test articles were applied as follows: The dosing volume of each dosing was 1 ml. The dressings were changed on a daily basis. Each lesion was observed daily. The outlines of the wound edge and the epithelial edge will be drawn on sterile transparent sheets, and the areas contained inside the edges were measured planimetrically. The measurement of areas was performed by Scan Beam […] processed to give group mean values and standard deviations where appropriate. Possible outliers were identified, too. Each variable was tested for normality by the Shapiro-Wilk method. In case of normal distribution, two-way analysis of variance was carried out for the variable with the factor: animal and treatment, and if significant difference were detected, possible intergroup differences were assessed using the least-squares means. Otherwise the possible intergroup differences were identified with Wilcoxon Rank-Sum test.

The target in assay [4] is T4, catalytic domain of human MMP-9 (Homo sapiens, UniProt P14780).
T4 sequence (P14780 with tags, fused parts or gaps DEL216-390 limits assumed): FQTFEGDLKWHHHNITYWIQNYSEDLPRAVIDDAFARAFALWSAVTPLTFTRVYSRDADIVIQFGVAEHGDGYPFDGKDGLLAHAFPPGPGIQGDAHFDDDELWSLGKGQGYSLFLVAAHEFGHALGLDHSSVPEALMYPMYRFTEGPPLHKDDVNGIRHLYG
The assay can be described thus: MMP-9 fluorogenic inhibition assay. Type of assay: biochemical. As to conditions: read-out: Calculated Ki(nM) MMP-9. As to the method:
(§3) All enzymes were pre-activated at 37° C. with aminophenylmercuric acetate (APMA) or trypsin before being made up to the final concentrations used in the assay. MMP-1 (30 nM) was activated with 0.93 mM APMA for 20 minutes, MMP-2 (30 nM) was activated with 1.32 mM APMA for 1 hour, MMP-3 (1010 nM) was activated with 1.81 mM APMA for 3 hours or heat activated at 55° C. for three hours, MMP-9 (100 nM) was activated with 2 mM APMA for 2 hours, human MMP-13 (100 nM) was activated with 2 mM APMA for 2 hours, and MMP-14 (900 nM) was activated with 0.9 ng/ml trypsin for 25 minutes, followed by the addition of 4.5 ng/ml trypsin inhibitor.
(§4) For MMP-1, the assay buffer used was 50 mM Tris, 200 mM NaCl, 5 mM CaCl2, 20 μM ZnCl2, 0.05% (w/v) Brij 35, pH 7.5. […] For MMP-13, the assay buffer used was 50 mM Tris, pH 7.5, 200 mM NaCl, 5 mM CaCl2, […] and 0.02% (w/v) Brij 35. For MMP-14, the assay buffer used was 50 mM Tris, 100 mM NaCl, 10 mM CaCl2, 0.25% (w/v) Brij 35, pH 7.5.
MMP-2, MMP-3 and MMP-9 inhibition was assayed by incubating activated catalytic domain of human MMP-2, MMP-3 and MMP-9 at 1 nM in assay buffer with 5 μM substrate Mca-Arg-Pro-Lys-Pro-Tyr-Ala-Nva-Trp-Met-Lys(Dnp)-NH2, and six different concentrations of inhibitor. The incubation was performed at 37° C. for 60 minutes.
(§5) The final assay concentrations of inhibitors used in the MMP-1 assays to determine Ki were 50, 40, 30, 20, 10 and 5 μM. For MMP-2, the final assay concentrations of inhibitors used were 1000, 800, 600, 400, 200 and 100 nM. For MMP-3, the final assay concentrations of inhibitors used were 5, 4, 3, 2, 1 and 0.5 nM. For MMP-9 and MMP-14, the final assay concentrations of inhibitors used were 5, 4, 3, 2, 1 and 0.5 μM.
All assays were carried out in a black 96-well plate with a final volume of 100 μl in each well. […] For MMP-2, MMP-3, MMP-9 and MMP-14, fluorescence was read every 2 minutes at […] and 393 nm γem for 1 hour using a Fluorostar fluorimeter (BMG) with BIOLISE software. For MMP-1 assays, the filters used were 355 nm γex and 440 nm γem; fluorescence was read every 2 minutes for 1 hour. […]

The target of assay [5] is T5, catalytic domain human MMP-14 (Homo sapiens, UniProt P50281).
T5 construct: made in house
In words: MMP-14 fluorogenic inhibition assay. The format is biochemical. The settings on record: read-out: Calculated Ki(nM) MMP-14. As to the method:
as §3, §4
MMP-14 inhibition was assayed by incubating activated catalytic domain human MMP-14 at 1 nM in assay buffer with 10 μM Mca-Pro-Leu-Gly-Leu-Dpa-Ala-Arg-NH2 and six concentrations of inhibitor. The incubation was performed at 37° C. for 60 minutes.
as §5
All assays were carried out in a black 96-well plate with a final volume of 100 μl in each well. Inhibitors were dissolved in dimethylsulphoxide (DMSO) to 1 mM. […] For MMP-2, MMP-3, MMP-9 and MMP-14, fluorescence was read every 2 minutes at […] and 393 nm γem for 1 hour using a Fluorostar fluorimeter (BMG) with BIOLISE software. For MMP-1 assays, the filters used were 355 nm γex and 440 nm γem; fluorescence was read every 2 minutes for 1 hour. […]

The mark [6] stands for this setting: individual determinations, 100 µM.
The mark [7] stands for this setting: individual determinations, read-out: % inhibition at 100 μM.
The mark [8] stands for this setting: mean ± sem, read-out: % inhibition at 100 μM Mean ± sem.

Values joined by “and” are separate entries in the source; they are usually repeats but may differ in a detail not shown here. Equal entries are not always repeated. Where two headings read alike, the source gives them in different places.

T3 sequence (P00747 581-810 limits assumed): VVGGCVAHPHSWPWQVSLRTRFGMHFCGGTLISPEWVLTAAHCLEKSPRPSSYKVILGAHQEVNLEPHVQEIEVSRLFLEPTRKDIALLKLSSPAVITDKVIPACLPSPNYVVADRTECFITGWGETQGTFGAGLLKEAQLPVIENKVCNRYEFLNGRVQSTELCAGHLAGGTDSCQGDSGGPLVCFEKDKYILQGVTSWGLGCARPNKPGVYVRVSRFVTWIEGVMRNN
T3 sequence (P00747 97-580 partner limits assumed): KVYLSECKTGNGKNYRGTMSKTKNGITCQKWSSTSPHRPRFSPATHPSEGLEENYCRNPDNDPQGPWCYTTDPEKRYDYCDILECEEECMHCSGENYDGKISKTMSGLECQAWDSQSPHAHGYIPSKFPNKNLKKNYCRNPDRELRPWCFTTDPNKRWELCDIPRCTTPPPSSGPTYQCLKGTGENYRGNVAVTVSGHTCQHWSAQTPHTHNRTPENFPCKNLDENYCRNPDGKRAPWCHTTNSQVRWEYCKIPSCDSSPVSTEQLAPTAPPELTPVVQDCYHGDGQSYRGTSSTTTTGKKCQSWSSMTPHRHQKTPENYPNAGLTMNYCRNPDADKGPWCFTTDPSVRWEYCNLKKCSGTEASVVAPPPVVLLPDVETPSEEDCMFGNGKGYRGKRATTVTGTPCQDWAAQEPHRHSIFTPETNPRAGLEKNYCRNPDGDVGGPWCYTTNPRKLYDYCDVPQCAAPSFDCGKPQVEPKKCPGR
T2 sequence (P00750 36-562): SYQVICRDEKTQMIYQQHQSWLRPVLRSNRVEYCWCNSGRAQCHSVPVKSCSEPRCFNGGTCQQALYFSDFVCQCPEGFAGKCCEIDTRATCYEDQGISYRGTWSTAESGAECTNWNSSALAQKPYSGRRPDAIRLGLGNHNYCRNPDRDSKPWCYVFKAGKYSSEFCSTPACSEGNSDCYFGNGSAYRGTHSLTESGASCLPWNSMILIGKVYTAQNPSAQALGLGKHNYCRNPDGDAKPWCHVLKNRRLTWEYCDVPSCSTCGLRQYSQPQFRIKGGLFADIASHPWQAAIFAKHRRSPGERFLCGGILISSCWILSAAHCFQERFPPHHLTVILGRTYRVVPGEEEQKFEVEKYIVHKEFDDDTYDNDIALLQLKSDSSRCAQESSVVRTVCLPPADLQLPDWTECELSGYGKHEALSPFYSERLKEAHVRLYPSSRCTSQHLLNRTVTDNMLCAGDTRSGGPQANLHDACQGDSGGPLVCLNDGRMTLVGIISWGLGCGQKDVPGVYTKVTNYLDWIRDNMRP

For orientation: Ki means the dissociation constant of the complex between target and ligand, obtained from inhibition or displacement. The % inhibition is the relative decrease from the control value, in per cent. High values mean a response far below the control, low ones a response near the control. One may read the inhibition as the relative decrease from the control value, in per cent. As for `NC(N)=Nc1ncc(Cl)c2ccc(S(=O)(=O)N3CCCC3C(=O)O)cc12` (centres unmarked) [compound 5214], the Ki at uPA [1] (Calculated Ki (nM) Mean ± sem, mean ± sem) was 9.9 ± 0.76 nM; at uPA [1] (Calculated Ki (nM), individual determinations), 11 nM and 9.6 nM and 7.8 nM. Further, the “Potency as inhibitor of uPA (in words)” value on uPA [1] (from Table 1) is “potent inhibitor of uPA”. Besides, in the assay on uPA and MMP-3, the “Percentage inhibition of proteolysis” value is reported as 38.6. The “% inhibition at 100 μM” value at human tPA (setting [6]) was 47% and 50%; at Plasmin (setting [6]), 33% and 28% and 27%. Moreover, the inhibition at 100 µM at human tPA (setting [7]) worked out at 38%; at human tPA (setting [8]), 45 ± 3.61%; at Plasmin (setting [7]), 31%; at Plasmin (setting [8]), 29.8 ± 1.38%; on uPA [2], 91%. For the same compound, at uPA [2], the inhibition at 0.1 µM turned out to be 17%. The inhibition at 1 µM at uPA [2] was determined as 76%. In addition, the inhibition at 10 µM at uPA [2] was 83%.

For the compound `CNC(=O)[C@@H](Cc1ccccc1)NC(=O)C(CC(C)C)[C@H](CSc1cccs1)C(=O)NO` (some centres unmarked) [compound 5719], the “Non-epithelialised area MEAN” value in assay [3] (DAY 8) stood at 294.0; in assay [3] (DAY 9), 248.0; in assay [3] (DAY 10) it was 210.1; in assay [3] (DAY 11) it was 148.9. Further, the Ki is 0.47 nM in assay [4] and 3.68 nM in assay [5].
